Read-outs that look alike come from different tables or passages of the source.

This is an account of results in patent US20250289793A1, “MACROCYCLIC INHIBITORS OF ATP CITRATE LYASE” (Esperion Therapeutics, Inc., priority 2022, published 2025).

For data set [1] the following is noted: from COc1c(Cl)cc(C(=O)O)cc1S(=O)(=O)Cc1cc(-c2ccccc2OCCN)c(F)cc1F; amide bond; 15-membered ring; T3P/DIPEA; DMF; 48.0 mM; 21.0 h.
The conditions of data set [2]: 15-membered ring.
In data set [3] the target is T1, ACLY (Homo sapiens (Human), UniProt P53396). Kind of data set: Human ACLY (hACLY) RF/MS activity assay. The class given is biochemical. To be noted: 1 nM hACLY; 30 min pre-incubation; 15 μM Coenzyme A, 50 μM ATP, 50 μM citrate; CoA to Acetyl-CoA by RF/MS; read-out: RFMS IC50 GMean. An outline of the steps:
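Reaction buffer was 50 mM Hepes pH 8.0, 10 mM MgCl2, 0.003% BSA, 0.01% Brij35, 50 mM NaCl, 4 mM DTT, with 1 nM hACLY and 1% DMSO; compounds (two-fold series from 10 μM) were pre-incubated 30 min at RT. Reaction with 15 μM CoA, 50 μM ATP, 50 μM citrate ran 30 min, formic-acid quenched; CoA and acetyl-CoA quantified by RF/MS as ratio.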

Another data set has as its system HepG2 cells. Kind of data set: Fatty acid synthesis (FAS) assay in HepG2 cells. The class given is cell-based. Conditions: Homo sapiens, 1.5 h, 14C-citrate 50 μM, 90 min, read-out: FAS IC50 GMean. As for the experimental part: HepG2 cells were seeded into white clear-bottom 96-well plates (50,000/well) coated with collagen and incubated at 37° C. for 16-24 hours. Thereafter the plates were washed once with 100 μL PBS (+CaCl2+MgCl2) and 50 μL assay medium ([…] containing 11 mM glucose, 10 mM HEPES and 1 nM Insulin) per well was added. Test substances in assay medium were added (10 μL, 0.5% DMSO) and incubated for 20 min at 37° C. After that 10 μL assay medium containing ^14C-citrate (final concentration 50 μM) and PrestoBlue reagent (lx final concentration; ThermoFisher) were added and incubated for 90 min (37° C., 5% CO2). Cell viability was measured (Multiskan FC, microplate reader, absorbance 570 nm). Medium was removed by inverting the plate and cells were washed once with 100 μL ice-cold PBS. Cells were lysed with 50 μL lysis buffer (0.1 N NaOH, 0.1% Triton X-100) and plate was sealed with Tape Pads and vortexed. For the saponification reaction plates were incubated for 16-24 hours at 80° C. Seals were removed and 200 μL 0.1 N HCl was added for neutralisation of the pH. 150 μL from each well was transferred into the corresponding wells of a 96-well Flash plate (Perkin Elmer) and sealed with TopSeal A (Perkin Elmer). Plates were incubated for 4 h at 70° C., and for 1 h at room temperature in the dark. Signal of ^14C radioactivity was measured (TopCount). As a positive control 5 mM unlabelled citrate or C75 (Sigma, C5490) was applied.

Data set [4] deals with Recombinant human ACLY full length protein (Homo sapiens (Human), UniProt P53396). Briefly: hACLY ADP-Glo activity assay. The format is biochemical. To be noted: 0.5 nM ACLY; 15 μM sodium citrate, 1 μM coenzyme A, 80 μM ATP; ADP formed, luminescence; read-out: ADP-Glo IC50 GMean. As for the experimental part: Compounds of the disclosure were evaluated for their efficacy in inhibiting hACLY using an ADP-Glo™ assays that measure ADP formed from the enzymatic activity of hACLY.
Chain of Recombinant human ACLY full length protein (P53396 whole entry): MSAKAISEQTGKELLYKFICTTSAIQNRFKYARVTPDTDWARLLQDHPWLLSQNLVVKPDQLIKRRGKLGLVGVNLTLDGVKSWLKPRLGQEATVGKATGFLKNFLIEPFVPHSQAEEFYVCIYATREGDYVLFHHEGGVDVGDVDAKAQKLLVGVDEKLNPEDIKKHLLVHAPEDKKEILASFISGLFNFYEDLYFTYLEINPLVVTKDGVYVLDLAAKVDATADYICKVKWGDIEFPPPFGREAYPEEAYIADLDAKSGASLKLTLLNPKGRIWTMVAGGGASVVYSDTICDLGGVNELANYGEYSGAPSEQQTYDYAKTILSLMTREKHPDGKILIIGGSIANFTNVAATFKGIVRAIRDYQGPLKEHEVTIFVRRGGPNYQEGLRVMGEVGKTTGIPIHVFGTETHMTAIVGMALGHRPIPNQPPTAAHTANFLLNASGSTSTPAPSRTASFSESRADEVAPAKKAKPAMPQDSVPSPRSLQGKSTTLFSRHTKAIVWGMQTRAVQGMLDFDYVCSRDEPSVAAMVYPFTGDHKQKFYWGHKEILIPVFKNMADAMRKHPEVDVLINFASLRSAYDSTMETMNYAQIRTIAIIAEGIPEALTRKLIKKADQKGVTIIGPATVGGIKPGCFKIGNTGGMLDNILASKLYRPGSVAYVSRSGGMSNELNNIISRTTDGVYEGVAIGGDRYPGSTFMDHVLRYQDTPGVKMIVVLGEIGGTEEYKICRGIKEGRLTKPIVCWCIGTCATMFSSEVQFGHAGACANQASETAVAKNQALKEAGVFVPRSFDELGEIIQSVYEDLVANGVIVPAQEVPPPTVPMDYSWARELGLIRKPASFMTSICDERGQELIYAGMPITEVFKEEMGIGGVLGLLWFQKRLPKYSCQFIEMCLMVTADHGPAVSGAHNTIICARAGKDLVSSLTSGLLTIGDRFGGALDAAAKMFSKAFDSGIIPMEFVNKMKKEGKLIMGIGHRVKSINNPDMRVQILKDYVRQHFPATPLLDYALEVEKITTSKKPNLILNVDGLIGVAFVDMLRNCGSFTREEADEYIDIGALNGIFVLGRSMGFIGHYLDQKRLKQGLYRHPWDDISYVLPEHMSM
Test compounds were 3-fold serially diluted in DMSO over 11-point concentration range and dispensed onto a 384-well plate. Recombinant human ACLY full length protein was purified. Concentrations of ACLY protein, sodium citrate, coenzyme A, and ATP in the reaction were optimized for standardized homogenous enzyme assay using ADP-Glo™ Kinase (Promega Inc.). The assay measured ADP formed from the enzymatic reaction.
The reaction buffer consisted of the assay buffer (50 mM HEPES pH 8.0, 10 mM MgCl2, 4 mM 1,4-Dithiothreitol, 0.01% Brij® 35).
ACLY protein (0.5 nM) was added to the prepared reaction buffer, and the mixture was dispensed into the assay plate and incubated for 30 minutes at room temperature. Next, 15 μM sodium citrate, 1 μM coenzyme A, and 80 μM ATP were added into the assay plate and incubated for 60 minutes at room temperature. The final reaction volume for each well was 5 μL.
5 μL of ADP-Glo™ reagent was added, and the mixture was incubated for 40 minutes at room temperature. 10 μl ADP-Glo™ detection reagent was added, and the mixture was incubated for 30 minutes at room temperature. Luminescence was determined using EnVision microplate reader with ultra-luminescence module (Perkin Elmer Inc). Concentration-response curve-fitting and IC50 determination was performed using Xlfit Software (version 5.5.0) with a four-parameter logistic regression fit model.
(In general: ADP-Glo turns the ADP formed in a reaction into a luminescent signal.)

Data set [5] deals with T1, ACLY. Briefly: InCell Pulse assay (permeate HEK293 cells, bind to and stabilize ACLY). The class given is cell-based. To be noted: HEK293 cells transfected with pICP-ACLY(FL)-ePL; 1 hour at 37° C., 55° C. heat pulse 10 minutes; read-out: InCell Pulse IC50 GMean. An outline of the steps: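 HEK293 cells transiently expressing full-length ACLY-ePL were exposed in OptiMEM to 11-point, 3-fold compound dilutions for 1 h at 37 °C, heat-pulsed 10 min at 55 °C, then lysed for enzyme-fragment complementation luminescence. Four-parameter fit, normalised to 0.5% DMSO and 1 μM NDI-094311.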

T1 sequence (P53396 whole entry): as above

In the case of `COc1c(Cl)cc2cc1S(=O)(=O)Cc1cc(c(F)cc1F)-c1ccccc1OCCNC2=O`, in data set [1], the ring closure, crude yield is 81%.

`COc1c(Cl)cc2cc1S(=O)(=O)Nc1cc(c(F)cc1F)-c1ccccc1OCCOC2=O` came in with a ring closure, yield after HPLC in data set [2] (from COc1c(Cl)cc(C(=O)O)cc1S(=O)(=O)Nc1cc(-c2ccccc2OCCO)c(F)cc1F, ester bond, 2,4,6-trichlorobenzoyl chloride/DIEA/DMAP, THF, 13.1 mM, 65.0 °C, 4.0 h) of 18%.

A word on the IC50: it is the concentration that inhibits the measured activity by half. For `O=C1NCCOc2ccccc2-c2cc(c(F)cc2F)NS(=O)(=O)c2cc1cc(Cl)c2O` [Compound 2, 15-chloro-21,23-difluoro-16-hydroxy-8-oxa-18lambda6-thia-11,19-diazatetracyclo[18.3.1.1^13,17.0^2,7]pentacosa-1(24),2,4,6,13,15,17(25),20,22-nonaene-12,18,18-trione], the IC50 at ACLY [3] was 0.02 to 0.1 µM; in the data set with HepG2 cells it was at least 50 µM; in data set [4] it was 0.001 to 0.01 µM; at ACLY [5] it was 1 to 50 µM.

For `CN1CCOc2ccccc2-c2cc(c(F)cc2F)NS(=O)(=O)c2cc(cc(Cl)c2O)C1=O` [Compound 4, 15-chloro-21,23-difluoro-16-hydroxy-11-methyl-8-oxa-18lambda6-thia-11,19-diazatetracyclo[18.3.1.1^13,17.0^2,7]pentacosa-1(24),2,4,6,13,15,17(25),20,22-nonaene-12,18,18-trione], the 50% inhibitory concentration (IC50) on ACLY [3] lay in the range of 0.02 to 0.1 µM; in the data set with HepG2 cells, 10 to 50 µM; in data set [4] it was 0.001 to 0.01 µM; on ACLY [5] it was 1 to 50 µM.

Regarding `O=C1NCCCOc2ccccc2-c2cc(c(F)cc2F)NS(=O)(=O)c2cc1cc(Cl)c2O` [Compound 6, 16-chloro-22,24-difluoro-17-hydroxy-8-oxa-19lambda6-thia-12,20-diazatetracyclo[19.3.1.1^14,18.0^2,7]hexacosa-1(25),2,4,6,14,16,18(26),21,23-nonaene-13,19,19-trione], the IC50 at ACLY [3] is 0.1 to 10 µM; in the data set on HepG2 cells, 10 to 50 µM; in data set [4], 0.01 to 1 µM; at ACLY [5], at least 50 µM.

On to `O=C1OCCOc2ccccc2-c2cc(c(F)cc2F)NS(=O)(=O)c2cc1cc(Cl)c2O` [Compound 7, 15-chloro-21,23-difluoro-16-hydroxy-8,11-dioxa-18lambda6-thia-19-azatetracyclo[18.3.1.1^13,170^2,7]pentacosa-1(24),2,4,6,13,15,17(25),20,22-nonaene-12,18,18-trione], for which the IC50 in the data set with HepG2 cells is below 2 µM.

`O=C1NCCCc2ccccc2-c2cc(c(F)cc2F)NS(=O)(=O)c2cc1cc(Cl)c2O` [Compound 8, 15-chloro-21,23-difluoro-16-hydroxy-18lambda6-thia-11,19-diazatetracyclo[18.3.1.1^13,17.0^2,7]pentacosa-1(24),2,4,6,13,15,17(25),20,22-nonaene-12,18,18-trione]: the IC50 on ACLY [3] lay in the range of 0.02 to 0.1 µM; in the data set on HepG2 cells, 10 to 50 µM; in data set [4], 0.001 to 0.01 µM; on ACLY [5], 0.3 to 1 µM.

On to `CN1c2cc(c(F)cc2F)-c2ccccc2OCCNC(=O)c2cc(Cl)c(O)c(c2)S1(=O)=O` [Compound 9, 15-chloro-21,23-difluoro-16-hydroxy-19-methyl-8-oxa-18lambda6-thia-11,19-diazatetracyclo[18.3.1.1^13,17.0^2,7]pentacosa-1(24),2,4,6,13,15,17(25),20,22-nonaene-12,18,18-trione], for which the IC50 at ACLY [3] is at least 10 µM; in the data set with HepG2 cells, at least 50 µM; in data set [4] it was at least 1 µM; at ACLY [5] it was at least 50 µM.

`CN1CCCc2ccccc2-c2cc(c(F)cc2F)NS(=O)(=O)c2cc(cc(Cl)c2O)C1=O` [Compound 10, 15-chloro-21,23-difluoro-16-hydroxy-11-methyl-18lambda6-thia-11,19-diazatetracyclo[18.3.1.1^13,17.0^2,7]pentacosa-1(24),2,4,6,13,15,17(25),20,22-nonaene-12,18,18-trione]: the half-inhibitory concentration (IC50) at ACLY [3] was 0.02 to 0.1 µM; in the data set on HepG2 cells, 2 to 10 µM; in data set [4] it was 0.001 to 0.01 µM; at ACLY [5] it was below 0.3 µM.

In data set [2] (from 3-[[5-[2-(2-aminoethoxy)phenyl]-2,4-difluoro-phenyl]sulfamoyl]-5-chloro-4-(difluoromethoxy)benzoic acid·HCl, amide bond, T3P/DIPEA, DMF, 18.1 mM), `O=C1NCCOc2ccccc2-c2cc(c(F)cc2F)NS(=O)(=O)c2cc1cc(Cl)c2OC(F)F` [Compound 15, 15-chloro-16-(difluoromethoxy)-21,23-difluoro-8-oxa-18lambda6-thia-11,19-diazatetracyclo[18.3.1.1^13,17.0^2,7]pentacosa-1(24),2,4,6,13,15,17(25),20,22-nonaene-12,18,18-trione] showed a ring closure, yield after HPLC of 48%. Besides, the IC50 is at least 10 µM on ACLY [3], 2 to 10 µM in the data set with HepG2 cells, at least 1 µM in data set [4] and at least 50 µM at ACLY [5].

Turning to `O=C1OCCCc2ccccc2-c2cc(c(F)cc2F)NS(=O)(=O)c2cc1cc(Cl)c2O` [Compound 16, 15-chloro-21,23-difluoro-16-hydroxy-11-oxa-18lambda6-thia-19-azatetracyclo[18.3.1.1^13,17.0^2,7]pentacosa-1(24),2,4,6,13,15,17(25),20,22-nonaene-12,18,18-trione], the IC50 was 0.02 to 0.1 µM on ACLY [3], below 2 µM in the data set on HepG2 cells, below 0.001 µM in data set [4] and below 0.3 µM on ACLY [5].

Turning to `C[C@H]1COc2ccccc2-c2cc(c(F)cc2F)NS(=O)(=O)c2cc(cc(Cl)c2O)C(=O)N1` [Compound 17, (10S)-15-chloro-21,23-difluoro-16-hydroxy-10-methyl-8-oxa-18lambda6-thia-11,19-diazatetracyclo[18.3.1.1^13,17.0^2,7]pentacosa-1(24),2,4,6,13,15,17(25),20,22-nonaene-12,18,18-trione], the half-inhibitory concentration (IC50) at ACLY [3] is 0.1 to 10 µM; in the data set with HepG2 cells, at least 50 µM; in data set [4] it was 0.01 to 1 µM; at ACLY [5], at least 50 µM.

In the case of `O=C1OCCOc2cc(Cl)ccc2-c2cc(c(F)cc2F)NS(=O)(=O)c2cc1cc(Cl)c2O` [Compound 18, 5,15-dichloro-21,23-difluoro-16-hydroxy-8,11-dioxa-18lambda6-thia-19-azatetracyclo[18.3.1.1^13,17.0^2,7]pentacosa-1(24),2,4,6,13,15,17(25),20,22-nonaene-12,18,18-trione], the half-maximal inhibitory concentration (IC50) at ACLY [3] fell in the range of 0.02 to 0.1 µM; in the data set with HepG2 cells, 2 to 10 µM; in data set [4], 0.001 to 0.01 µM; on ACLY [5], 0.3 to 1 µM.
